Measurements from patent publication US12365706B2, “Macrocyclic peptides as potent inhibitors of K-RAS G12D mutant” (Merck Sharp & Dohme LLC, priority 2019, dated 2025).
Starred links: 1 amine or outer side, 2 acyl side, 3 side chain; linkers in the order of their positions; H or OH if unused. Positions of bridges follow the written chain, without caps; N, C: chain ends. Non-standard residues stand in square brackets, D forms with d. Residues, ends and D or L forms follow the SMILES beside them. Lys(N3) = [N-]=[N+]=NCCCC[C@H](N)C(=O)O; AEEA = NCCOCCOCC(=O)O; CH2 = C([*:1])[*:2]

Key:
[1] = molecular target: T1, K-Ras^G12D (GDP) (Homo sapiens, UniProt P01116, G12D); assay: TR-FRET competitive binding assay, K-Ras(G12D) loaded with GDP
T1 construct: His-SUMO-tagged human K-Ras resides 1-169 was expressed; His-SUMO (N, cleaved yes); made in house; host or cells: E. coli Rosetta 2 (DE3)

[2] = system: AsPC-1 (homozygous K-Ras(G12D)) cells; assay: Cellular phospho-ERK assay in AsPC-1 cells; type: cell-based
Protocol: The cellular K-Ras inhibitory activity was evaluated by phosphorylation levels of ERK1/2 in AsPC-1 (homozygous K-Ras(G12D)) cells. AsPC-1 cells (ATCC® CRL-1682™) were cultured in T175 flask in growth medium (RPMI 1640 Medium, GlutaMAX™ Supplement, HEPES (Gibco 72400-047) supplemented with 10% fetal bovine serum (Hyclone SH30071.03) and 1× Penicillin/Streptomycin (Gibco 15140-122). The cells were harvested in seeding medium (RPMI 1640 Medium, no phenol red (Gibco 11835-030) supplemented with 10% fetal bovine serum (Hyclone SH30071.03), 25 mM HEPES (Gibco 15630-080) and 1× Penicillin/Streptomycin (Gibco 15140-122) after 5 min of 0.25% Trypsin-EDTA (Gibco 25200-056) digestion and were seeded in 384-well tissue culture treated plate (Greiner 781091) at a density of 15,000 cells/25 μL/well, and incubated at 37° C., 5% CO2 overnight. […] Phosphorylated ERK and total ERK levels were detected by Alpha SureFire Ultra Multiplex pERK kit (PerkinElmer MPSU-PTERK) using […] and 5 μL donor bead mix, both prepared following the manufacturer's protocol. […] Ratio of pERK vs total ERK in each well was used as the final readout. Dose response curves and EC50 were analyzed using a 4-parameter logistic equation in GraphPad Prism software (GraphPad, San Diego, CA).

[3] = Cell homogenate stability assay; type: in vitro ADME
Protocol: Stability of peptides towards intracellular proteases can be evaluated using HeLa cell homogenate. Suspended HeLa cells at 1 million cells/mL are sonicated in bursts with a probe sonicator on ice until uniformly homogenized. The homogenate thus prepared is frozen and stored at −20° C. until use. The peptides are incubated with the homogenate at 1 million cells/mL and loss of the peptide with increasing time is quantified using LC-MS/MS. Briefly, the test peptide is incubated with the homogenate at 1 μM in final volume of 50 μL at 37° C. At 0, 10, 30, 60 and 120 min, the reactions are quenched with 150 μL solution of 80% (v/v) Acetonitrile in Methanol containing a known internal standard peptide. The quenched samples are centrifuged at 4000 rpm for 5 min at 10° C. and supernatants are injected for bioanalysis by liquid chromatography combined with tandem-mass spectrometer. […] In addition, pre-boiled homogenate (prepared by incubating homogenate for 30 min in boiling water) is also used as a negative control for each test peptide. The ke is first-order rate constant describing the disappearance of parent drug in the incubation and may be obtained from regressing the initial slope (ke=−(slope)) of the natural log of the analyte area/internal standard area (designated as C at an appointed time t) in C versus time (min) profile. The half-life (t½) is calculated as: […]

[4] = molecular target: K-Ras(G12D) (Homo sapiens, UniProt P01116, G12D); conditions: cited from earlier work
[5] = system: ERK1/2; conditions: cited from earlier work
[6] = molecular target: T2, K-Ras(G12D) (GMPPNP) (Homo sapiens, UniProt P01116, G12D); assay: TR-FRET competitive binding assay, K-Ras(G12D) loaded with GMPPNP
T2 construct: His-SUMO-tagged human K-Ras resides 1-169 was expressed; His-SUMO (N, cleaved yes); made in house; host or cells: E. coli Rosetta 2 (DE3)

[7] = system: A427 cells (which contain the K-Ras(G12D) mutation); conditions: dose-dependent manner; cited from earlier work
[8] = molecular target: T1, K-Ras^G12D (GDP); assay: TR-FRET [K-Ras^G12D (GDP)] | EC50 (nM)

| SMILES | affinity for the GDP-loaded form of K-Ras (G12D) [1] | inhibition of ERK phosphorylation in an AsPC-1 cell line [2] | proteolytic degradation of the macrocycle in a cell homogenate stability study [3] | mutant selectivity in SOS1-mediated GDP-GTP exchange ([4]; G12D against G12C and wild-type K-Ras) | inhibition of SOS1-mediated GDP-GTP exchange [4] | phosphorylation levels of ERK1/2 [5] | affinity for the GTP-loaded form of K-Ras (G12D) [6] | cell proliferation of A427 cells [7] | EC50 [8] [nM] |
| --- | --- | --- | --- | --- | --- | --- | --- | --- | --- |
| CC[C@H](C)[C@@H]1NC(=O)[C@H](Cc2ccc(O)cc2)NC(=O)[C@H](CC(C)C)NC(=O)[C@@H]2CCCN2C(=O)[C@@H](NN[C@@H](CCCNC(=N)N)C(=O)N[C@@H](CCCNC(=N)N)C(=O)N[C@@H](CCCNC(=N)N)C(=O)N[C@@H](CCCNC(=N)N)C(=O)CC=O)CSSC[C@@H](C(=O)N[C@@H](CCCNC(=N)N)C(=O)N[C@@H](CCCNC(=N)N)C(=O)N[C@@H](CCCNC(=N)N)C(=O)N[C@@H](CCCNC(=N)N)C(N)=O)NC(=O)[C@H](C(C)C)NC(=O)[C@@H]2CCCN2C(=O)[C@H](CC(=O)O)NC(=O)[C@H](Cc2ccc(O)cc2)NC(=O)[C@H](CO)NC1=O [KRpep-2d] | high affinity | absence of biological activity | rapid proteolytic degradation | G12D-mutant selectivity against G12C and wild-type K-Ras variants | potently inhibited | reduced phosphorylation levels of ERK1/2 | weaker affinity | suppressed cell proliferation | – |
| CC[C@H](C)[C@@H]1NC(=O)[C@H](Cc2ccc(O)cc2)NC(=O)[C@H](CC(C)C)NC(=O)[C@@H]2CCCN2C(=O)[C@H](NC(=O)COCCOCCNC(=O)[C@H](CCCCN=[N+]=[N-])NC(=O)CNC(=O)[C@H](CCCCN)NC(=O)[C@H](CCCCN)NC(=O)[C@H](Cc2c[nH]c3ccccc23)NC(=O)[C@H](CCCCN)NC(=O)[C@H](CCSC)NC(=O)[C@H](CCCNC(=N)N)NC(=O)[C@H](CCCNC(=N)N)NC(=O)[C@H](CC(N)=O)NC(=O)[C@H](CCC(N)=O)NC(=O)[C@H](Cc2ccccc2)NC(=O)[C@H](Cc2c[nH]c3ccccc23)NC(=O)[C@@H](NC(=O)[C@H](CCCCN)NC(=O)[C@@H](NC(=O)[C@H](CCC(N)=O)NC(=O)[C@H](CCCNC(=N)N)NC(C)=O)[C@@H](C)CC)[C@@H](C)CC)CSCSC[C@@H](C(=O)N[C@@H](CCCNC(=N)N)C(N)=O)NC(=O)[C@H](C(C)C)NC(=O)[C@@H]2CCCN2C(=O)[C@H](CC(=O)O)NC(=O)[C@H](Cc2ccc(O)cc2)NC(=O)[C@H](CO)NC1=O [SEQ ID NO: 16] (Ac-RQIKIWFQNRRMKWKKG[Lys(N3)][AEEA][dC]PLYISYDPVCR-NH2; linker 20-30 via CH2) | – | – | – | – | – | – | – | – | 400 |
